Experimental data as given in patent US8003660B2, “Modulators of muscarinic receptors” (Vertex Pharmaceuticals Incorporated, priority 2006, dated 2011).
Where two headings read alike, the source gives them in different places.

Legend:
Type in all cases: cell-based
[1] = biological target: T1, M2 muscarinic receptor (Homo sapiens, UniProt P08172); experiment: Functional mobilization of intracellular calcium (FLIPR) in CHO cells expressing M2; conditions: for EC50: CHO cells expressing M2, FLIPR calcium; for Emax: CHO; for M2 Activity: CHO cells expressing M2, FLIPR calcium assay
T1 construct: expressed in transfected cells; host or cells: CHO (M2-CHO)
T1 sequence (P08172 1-466): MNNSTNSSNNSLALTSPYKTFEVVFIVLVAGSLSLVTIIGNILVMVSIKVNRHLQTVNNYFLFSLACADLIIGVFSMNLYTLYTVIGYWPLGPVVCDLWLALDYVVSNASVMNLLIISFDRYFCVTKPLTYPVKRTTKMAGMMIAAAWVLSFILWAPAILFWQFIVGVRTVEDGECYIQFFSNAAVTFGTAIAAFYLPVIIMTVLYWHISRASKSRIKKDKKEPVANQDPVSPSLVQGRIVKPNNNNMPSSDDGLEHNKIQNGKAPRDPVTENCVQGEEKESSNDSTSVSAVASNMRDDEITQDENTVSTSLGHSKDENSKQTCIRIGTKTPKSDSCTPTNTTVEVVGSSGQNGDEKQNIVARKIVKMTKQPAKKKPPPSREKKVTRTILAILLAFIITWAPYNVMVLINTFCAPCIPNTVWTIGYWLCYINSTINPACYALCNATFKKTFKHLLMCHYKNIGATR
In short: (§1)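 Calcium flux is read on FLIPR over 60 sec at 488/540 nm in muscarinic-receptor CHO lines. Antagonist mode adds carbachol at EC80 after 15 min compound preincubation or with simultaneous co-application. Agonist mode adds compound alone. Cells carry Fluo-3 or Calcium 3 dye in probenecid-containing pH 7.4 buffer, 0.5% DMSO final.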

[2] = biological target: T2, M1 muscarinic receptor (Homo sapiens, UniProt P11229); experiment: Functional mobilization of intracellular calcium (FLIPR) in CHO cells expressing M1; conditions: for EC50: CHO cells expressing M1, FLIPR calcium; for Emax: CHO; for M1 Activity: CHO cells expressing M1, FLIPR calcium assay
T2 construct: expressed in transfected cells; host or cells: CHO (M1-CHO)
T2 sequence (P11229 1-460): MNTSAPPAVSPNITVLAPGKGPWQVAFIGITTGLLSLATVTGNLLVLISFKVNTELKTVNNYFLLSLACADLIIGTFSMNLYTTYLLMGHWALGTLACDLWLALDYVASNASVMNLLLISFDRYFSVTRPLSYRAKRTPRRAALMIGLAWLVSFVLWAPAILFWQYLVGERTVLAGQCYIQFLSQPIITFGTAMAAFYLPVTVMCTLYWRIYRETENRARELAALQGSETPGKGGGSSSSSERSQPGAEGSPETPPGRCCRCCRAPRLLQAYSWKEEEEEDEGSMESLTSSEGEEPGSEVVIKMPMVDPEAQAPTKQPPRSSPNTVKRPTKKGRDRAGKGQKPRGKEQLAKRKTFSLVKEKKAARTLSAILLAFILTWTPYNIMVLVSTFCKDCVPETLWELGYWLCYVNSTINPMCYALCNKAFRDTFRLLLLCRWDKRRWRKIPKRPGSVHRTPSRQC
In short: as §1

[3] = biological target: T3, M4 muscarinic receptor (Homo sapiens, UniProt P08173); experiment: Functional mobilization of intracellular calcium (FLIPR) in CHO cells expressing M4; conditions: for EC50: CHO cells expressing M4, FLIPR calcium; for Emax: CHO; for M4 Activity: CHO cells expressing M4, FLIPR calcium assay
T3 construct: expressed in transfected cells; host or cells: CHO (M4-CHO)
T3 sequence (P08173 1-479): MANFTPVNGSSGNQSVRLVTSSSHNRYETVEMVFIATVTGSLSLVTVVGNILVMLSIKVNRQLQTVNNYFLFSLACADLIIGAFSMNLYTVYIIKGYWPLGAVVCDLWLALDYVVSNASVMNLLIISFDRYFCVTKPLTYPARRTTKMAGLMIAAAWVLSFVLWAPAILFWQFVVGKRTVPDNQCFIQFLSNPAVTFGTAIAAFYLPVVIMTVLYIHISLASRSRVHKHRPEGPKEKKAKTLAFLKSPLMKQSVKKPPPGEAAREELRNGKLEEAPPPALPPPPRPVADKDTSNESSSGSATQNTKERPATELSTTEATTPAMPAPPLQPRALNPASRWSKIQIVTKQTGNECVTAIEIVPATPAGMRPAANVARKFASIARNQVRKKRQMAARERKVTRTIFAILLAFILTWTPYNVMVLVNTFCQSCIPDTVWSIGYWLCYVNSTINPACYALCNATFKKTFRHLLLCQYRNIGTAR
In short: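 Read-out: FLIPR fluorescence (ex 488, em 540 nm) over 60 s. Recombinant CHO lines are dye-loaded (Fluo-3 AM or Calcium 3) with 1 mM probenecid. For antagonist mode, compound is pre-incubated 15 min, or co-applied, then carbachol is added at 3× EC80 per subtype.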

[4] = biological target: T4, M3 muscarinic receptor (Homo sapiens, UniProt P20309); experiment: Functional mobilization of intracellular calcium (FLIPR) in CHO cells expressing M3; conditions: for EC50: CHO cells expressing M3, FLIPR calcium; for Emax: CHO; for M3 Activity: CHO cells expressing M3, FLIPR calcium assay
T4 construct: expressed in transfected cells; host or cells: CHO (M3-CHO)
In short: as §1

[5] = 100% = maximum response obtained with the Carbachol control, read-out: M2 Efficacy
[6] = 100% = maximum response obtained with the Carbachol control, read-out: M1 Efficacy
[7] = 100% = maximum response obtained with the Carbachol control, read-out: M4 Efficacy
[8] = 100% = maximum response obtained with the Carbachol control, read-out: M3 Efficacy
[9] = 100% efficacy = maximum response obtained with the Carbachol control

T4 sequence (P20309 whole entry): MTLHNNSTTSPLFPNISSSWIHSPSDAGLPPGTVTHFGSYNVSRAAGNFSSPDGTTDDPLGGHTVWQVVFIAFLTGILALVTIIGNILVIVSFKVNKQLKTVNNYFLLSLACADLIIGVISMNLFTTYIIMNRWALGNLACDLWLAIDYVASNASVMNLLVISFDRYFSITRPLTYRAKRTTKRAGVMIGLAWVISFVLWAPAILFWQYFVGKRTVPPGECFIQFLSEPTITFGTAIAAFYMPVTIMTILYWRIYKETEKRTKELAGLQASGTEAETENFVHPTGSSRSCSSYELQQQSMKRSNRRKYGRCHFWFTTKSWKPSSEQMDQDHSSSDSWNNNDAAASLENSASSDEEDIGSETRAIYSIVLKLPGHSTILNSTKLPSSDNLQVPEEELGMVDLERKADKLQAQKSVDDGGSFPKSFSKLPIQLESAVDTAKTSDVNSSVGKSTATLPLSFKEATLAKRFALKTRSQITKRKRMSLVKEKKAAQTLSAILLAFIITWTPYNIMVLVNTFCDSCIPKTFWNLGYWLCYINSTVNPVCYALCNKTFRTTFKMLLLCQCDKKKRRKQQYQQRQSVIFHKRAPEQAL

| Compound | EC50 [1] [µM] | Emax [1, 5] [%] | EC50 [2] [nM] | Emax [2, 6] [%] | EC50 [3] [nM] | Emax [3, 7] [%] | EC50 [4] [µM] | Emax [4, 8] [%] | M2 Activity [1] | Emax [1, 9] [%] | M1 Activity [2] | Emax [2, 9] [%] | M4 Activity [3] | Emax [3, 9] [%] | M3 Activity [4] | Emax [4, 9] [%] |
| --- | --- | --- | --- | --- | --- | --- | --- | --- | --- | --- | --- | --- | --- | --- | --- | --- |
| CC(=O)N(C)CCC(=O)N[C@H]1CCC2(CCN(CCC(C)(C)C)CC2)c2ccccc21 [compound 171] | < 2 | 25 to 100 | < 2000 | 25 to 100 | < 2000 | 25 to 100 | > 5 | < 25 | – | – | – | – | – | – | – | – |
| C=CCCCN1CCC2(CC[C@H](NC(C)=O)c3ccccc32)CC1 [compound 172] | 2 to 5 | 25 to 100 | < 2000 | 25 to 100 | < 2000 | 25 to 100 | > 5 | < 25 | – | – | – | – | – | – | – | – |
| CC(C)(C)CCN1CCC2(CCC(=O)c3ccccc32)CC1 [compound 173] | < 2 | 25 to 100 | < 2000 | 25 to 100 | < 2000 | 25 to 100 | > 5 | < 25 | – | – | – | – | – | – | – | – |
| COC(=O)N(C)[C@H]1CCC2(CCN(CCC(C)(C)C)CC2)c2ccccc21 [compound 174] | > 5 | < 25 | 2000 to 5000 | 25 to 100 | < 2000 | 25 to 100 | > 5 | < 25 | – | – | – | – | – | – | – | – |
| CN(C)C(=O)N[C@H]1CCC2(CCN(CCC(C)(C)C)CC2)c2ccccc21 [compound 175] | > 5 | < 25 | > 5000 | < 25 | < 2000 | 25 to 100 | > 5 | < 25 | – | – | – | – | – | – | – | – |
| CN(C(=O)C1CC1)[C@H]1CCC2(CCN(CCC(C)(C)C)CC2)c2ccccc21 [compound 176] | > 5 | < 25 | 2000 to 5000 | < 25 | < 2000 | 25 to 100 | > 5 | < 25 | – | – | – | – | – | – | – | – |
| CC(=O)N[C@H]1CCC2(CCN(CCC(C)(C)C)CC2)c2cc(F)ccc21 [compound 177] | < 2 | 25 to 100 | < 2000 | 25 to 100 | < 2000 | 25 to 100 | > 5 | < 25 | – | – | – | – | – | – | – | – |
| CN(C(=O)C1CCCC1)[C@H]1CCC2(CCN(CCC(C)(C)C)CC2)c2ccccc21 [compound 178] | > 5 | < 25 | > 5000 | < 25 | < 2000 | 25 to 100 | > 5 | < 25 | – | – | – | – | – | – | – | – |
| CC(=O)N[C@H]1CCC2(CCN(CCCCC(C)(C)C#N)CC2)c2ccccc21 [compound 179] | > 5 | < 25 | < 2000 | 25 to 100 | > 5000 | < 25 | > 5 | < 25 | – | – | – | – | – | – | – | – |
| Cn1cnc(C(=O)N[C@@H]2CCC3(CCN(CCC(C)(C)C)CC3)c3cc(F)ccc32)c1 [compound 180] | < 2 | 25 to 100 | < 2000 | 25 to 100 | < 2000 | 25 to 100 | > 5 | < 25 | – | – | – | – | – | – | – | – |
| CCN(C(=O)COC)[C@H]1CCC2(CCN(CCC(C)(C)C)CC2)c2ccccc21 [compound 181] | > 5 | < 25 | 2000 to 5000 | 25 to 100 | < 2000 | 25 to 100 | > 5 | < 25 | – | – | – | – | – | – | – | – |
| CC(C)C[C@@H](C(=O)N[C@@H]1CCC2(CCN(CCC(C)(C)C)CC2)c2ccccc21)N1CCCC1=O [compound 182] | > 5 | < 25 | 2000 to 5000 | 25 to 100 | < 2000 | 25 to 100 | > 5 | < 25 | – | – | – | – | – | – | – | – |
| CCN(C(=O)CC(F)(F)F)[C@H]1CCC2(CCN(CCC(C)(C)C)CC2)c2ccccc21 [compound 183] | > 5 | < 25 | 2000 to 5000 | 25 to 100 | < 2000 | 25 to 100 | > 5 | < 25 | – | – | – | – | – | – | – | – |
| CC(=O)N(C)[C@H]1CCC2(CCN(CCC(C)C)CC2)c2ccccc21 [compound 184] | > 5 | < 25 | < 2000 | 25 to 100 | < 2000 | 25 to 100 | > 5 | < 25 | – | – | – | – | – | – | – | – |
| CC(=O)N[C@H]1CCC2(CCN(CCCC(F)(F)F)CC2)c2ccccc21 [compound 185] | – | – | – | – | – | – | – | – | + (activity was measured to be greater than 5.0 μM) | < 25 | ++ (activity was measured to be from 2.0 μM to 5.0 μM) | 25 to 100 | ++ (activity was measured to be from 2.0 μM to 5.0 μM) | 25 to 100 | + (activity was measured to be greater than 5.0 μM) | 25 to 100 |
| CC(=O)N1CCCCC1C(=O)N[C@@H]1CCC2(CCN(CCC(C)(C)C)CC2)c2ccccc21 (some centres unmarked) [compound 186] | – | – | – | – | – | – | – | – | + (activity was measured to be greater than 5.0 μM) | < 25 | ++ (activity was measured to be from 2.0 μM to 5.0 μM) | 25 to 100 | +++ (activity was measured to be less than 2.0 μM) | 25 to 100 | + (activity was measured to be greater than 5.0 μM) | < 25 |
